Columns and labels:
LasR [1] = molecular target: T1, LasR (Pseudomonas aeruginosa, UniProt P25084); experiment: LasR agonism assay, E. coli DH5α (pJN105L+pSC11) β-galactosidase reporter strain; assay type: cell-based, P. aeruginosa; details: for Act %: thiolactone libraries, E. coli, synthetic ligands tested at 10 μM; for Agonist, percent of activation compared to the positive control: initial library (FIG. 4); for Agonist, percent of activation compared to the positive control / LasR agonism, in words / EC50: E. coli DH5α (pJN105L+pSC11); for EC50: dose response
T1 construct: expressed in transfected cells; host or cells: Escherichia coli DH5α (pJN105L+pSC11)
Protocol: (§1) The black bars are DH5α (pJN105L+pSC11) and the grey bars are PA01 MW1 (pUM15). Agonism positive control=activity of the reporter strain at full turn on for the strain. […] Negative control (Neg)=bacteria in the absence of natural and synthetic ligand. Error bars=standard deviation of the mean of triplicate samples.
(§2) The initial library was tested for LasR agonistic and antagonistic activity in two strains: Escherichia coli DH5α (pJN105L+pSC11) [Lee, J. H.; Lequette, Y.; Greenberg, E. P., Activity of purified QscR, a Pseudomonas aeruginosa orphan quorum-sensing transcription factor. Mol. Microbiol. 2006, 59 (2), 602-609] and P. aeruginosa PA01 MW1 (pUM15) [Muh, U.; Schuster, M.; Heim, R.; Singh, A.; Olson, E.; Greenberg, E. P., Novel Pseudomonas aeruginosa Quorum-Sensing Inhibitors Identified in an Ultra-High-Throughput Screen. Antimicrob. Agents Chemother. 2006, 50, 3674-3679] (FIGS. 5A and 5B). Both strains allow for synthetic autoinducer mimic evaluation and contain a reporter gene that allows for a quantitative readout of QS activity. DH5α (pJN105L+pSC11) is a heterologous β-galactosidase E. coli reporter strain containing a plasmid for the P. aeruginosa LasR gene. The PA01 MW1 (pUM15) strain uses the natural P. aeruginosa background containing a LasI deletion and the gene for yellow fluorescent protein (YFP) under the control of the LasI promoter to evaluate the LasI/R activity. Since the PA01 MW1 (pUM15) strain evaluates LasR in the natural P. aeruginosa background, in contrast to the heterologous E. coli strain, an improved idea of the interplay between the isolated LasI/R system and the combination of LasI/R with other QS subsystems such as QscR can be determined. Furthermore, additional nuances of the natural system such as compound permeability are incorporated in assays using the PA01 MW1 (pUM15) strain.

LasR [2] = molecular target: T1, LasR; experiment: LasR agonism assay, P. aeruginosa PA01 MW1 (pUM15) YFP reporter strain; assay type: cell-based; details: for Act %: thiolactone libraries, P. aeruginosa, synthetic ligands tested at 10 μM; for Agonist, percent of activation compared to the positive control: initial library (FIG. 4), P. aeruginosa PA01 MW1; for EC50: dose response
Protocol: as §1, §2

LasR [3] = molecular target: T1, LasR; experiment: LasR antagonism assay, E. coli DH5α (pJN105L+pSC11) β-galactosidase reporter strain; assay type: cell-based, P. aeruginosa; details: thiolactone libraries, synthetic ligands tested at 10 μM
TraR = TraR (Agrobacterium tumefaciens, UniProt P33905); experiment: cell-based; assay type: cell-based; parameters: and Agrobacterium tumefaciens WCF (pCF372); endogenous in cells; host or cells: Agrobacterium tumefaciens WCF (pCF372); details: for Inhib %: thiolactone libraries, A. tumefaciens, synthetic ligands tested at 10 μM; for IC50: dose response
Protocol: (§3) The initial library was also tested in Vibrio fischeri ESI 114 (Δ-LuxI) [Lupp, C.; Urbanowski, M.; Greenberg, E. P.; Ruby, E. G., The Vibrio fischeri quorum-sensing systems ain and lux sequentially induce luminescence gene expression and are important for persistence in the squid host. Mol. Microbiol. 2003, 50 (1), 319-331] and Agrobacterium tumefaciens WCF (pCF372). […] J. Bacteriol. 1998, 180 (20), 5398-5405.] […] [Geske, G. D.; O'Neill, J. C.; Miller, D. M.; Mattmann, M. E.; Blackwell, H. E., Modulation of Bacterial Quorum Sensing: Systematic Evaluation of N-Acylated Homoserine Lactones in Multiple Species and New Insights into Their Mechanism of Action. J. Am. Chem. Soc. 2007, 129, 13613-13625.]

LuxR [4] = molecular target: T2, LuxR (Aliivibrio fischeri, UniProt P35327); experiment: cell-based; assay type: cell-based, Vibrio fischeri; parameters: The initial library was also tested in Vibrio fischeri ESI 114 (Δ-LuxI); endogenous in cells; host or cells: Vibrio fischeri ESI 114 (Δ-LuxI); details: for Inhib %: thiolactone libraries, V. fischeri, synthetic ligands tested at 10 μM; for Antagonism, in words: V. fischeri strain; for Antagonist, percent inhibition compared to a positive control: initial library (FIG. 4); for Antagonist, percent inhibition compared to a positive control / IC50: V. fischeri ESI 114 (Δ-LuxI); for IC50: dose response
Protocol: as §3

LasR [5] = molecular target: T1, LasR; experiment: LasR antagonism assay, E. coli DH5α (pJN105L+pSC11) β-galactosidase reporter strain; assay type: cell-based, P. aeruginosa; details: E. coli DH5α (pJN105L+pSC11); for Antagonist, percent inhibition compared to a positive control: initial library (FIG. 4), negative values indicate agonist properties; for IC50: dose response
Protocol: (§4) FIG. 5B is a bar graph showing the results of […] assay for initial heterocyclic and carbocyclic library (Scheme 1) shown as a percent of the positive control. Antagonism positive control (Pos)=activity of the reporter strain in the absence of synthetic ligand at the EC50 value for the strain. […] Negative control (Neg)=bacteria in the absence of natural and synthetic ligand. Error bars=standard deviation of the mean of triplicate samples.
as §2

LuxR [6] = molecular target: T2, LuxR; details: V. fischeri ESI 114 (Δ-LuxI); for Agonist, percent of activation compared to the positive control: initial library (FIG. 4)
Protocol: as §3

LasR [7] = molecular target: T1, LasR; experiment: LasR antagonism assay, P. aeruginosa PA01 MW1 (pUM15) YFP reporter strain; assay type: cell-based; details: for LasR antagonism, in words: P. aeruginosa PA01 MW1 (pUM15), natural background; for Antagonist, percent inhibition compared to a positive control: initial library (FIG. 4), P. aeruginosa PA01 MW1, negative values indicate agonist properties
Protocol: as §4, §2

T2 sequence (P35327 whole entry): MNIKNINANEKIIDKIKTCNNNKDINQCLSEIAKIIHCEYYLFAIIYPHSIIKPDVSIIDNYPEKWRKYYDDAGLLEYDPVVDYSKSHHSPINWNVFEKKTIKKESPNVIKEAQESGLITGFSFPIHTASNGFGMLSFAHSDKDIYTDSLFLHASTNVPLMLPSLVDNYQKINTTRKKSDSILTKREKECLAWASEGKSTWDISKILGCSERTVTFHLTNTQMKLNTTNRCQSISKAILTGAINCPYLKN
Chain of TraR (P33905 whole entry): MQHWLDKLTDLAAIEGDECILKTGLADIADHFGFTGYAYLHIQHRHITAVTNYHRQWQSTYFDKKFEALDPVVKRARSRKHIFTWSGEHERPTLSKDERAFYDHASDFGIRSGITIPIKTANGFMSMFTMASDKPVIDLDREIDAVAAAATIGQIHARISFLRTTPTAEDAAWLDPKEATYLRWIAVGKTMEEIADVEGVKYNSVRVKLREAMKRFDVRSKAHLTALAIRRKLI
T1 sequence (P25084 whole entry): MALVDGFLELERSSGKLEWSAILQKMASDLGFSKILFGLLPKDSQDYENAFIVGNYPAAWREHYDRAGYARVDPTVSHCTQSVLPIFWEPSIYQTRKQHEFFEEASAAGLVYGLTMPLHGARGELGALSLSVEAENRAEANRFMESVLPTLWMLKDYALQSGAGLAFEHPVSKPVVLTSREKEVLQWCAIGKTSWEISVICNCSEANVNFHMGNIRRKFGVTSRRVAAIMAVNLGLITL

| Compound | Act % (LasR [1]) [%] | Act % (LasR [2]) [%] | Inhib % (LasR [3]) [%] | Inhib % (TraR) [%] | Inhib % (LuxR [4]) [%] | other results |
| --- | --- | --- | --- | --- | --- | --- |
| O=C(Cc1ccc(-c2ccccc2)cc1)NC1CCSC1=O (racemic) [Compound 23] | 9 | 3 | 56 | 9 | 98 | – |
| CCCCCCCCCC(=O)CC(=O)NC1CCSC1=O (stereo not shown) [Compound 1] | 94 | 88 | −40 | 92 | 99 | Agonist, percent of activation compared to the positive control (LasR [1]): 94%; Agonist, percent of activation compared to the positive control (LasR [2]): 88%; Antagonism, in words (TraR; A. tumefaciens strain): good antagonist; Antagonist, percent inhibition compared to a positive control (TraR; initial library (FIG. 4), A. tumefaciens WCF (pCF372), negative values indicate agonist properties): 65%; Antagonism, in words (LuxR [4]): good antagonist; Antagonist, percent inhibition compared to a positive control (LuxR [4]): 92% |
| CCCCCCCCCC(=O)CC(=O)NCc1ccccc1F [Compound 7] | – | – | – | – | – | Antagonist, percent inhibition compared to a positive control (LasR [5]): 38.8%; Agonist, percent of activation compared to the positive control (LuxR [6]): 3.1% |
| CCCCCCCCCC(=O)CC(=O)NC1CCCC1 [Compound 3] | – | – | – | – | – | LasR agonism, in words (LasR [1]): agonist; Agonist, percent of activation compared to the positive control (LasR [1]): 83.5%; LasR agonism, in words (LasR [2]; P. aeruginosa PA01 MW1 (pUM15), natural background): agonist; Agonist, percent of activation compared to the positive control (LasR [2]): 54.2%; Antagonism, in words (LuxR [4]): modest antagonist; Antagonist, percent inhibition compared to a positive control (LuxR [4]): 89.4% |
| O=C(Cc1ccc(-c2ccccc2)cc1)N[C@H]1CCSC1=O [Compound 23E] | 0 | 1 | 45 | 26 | 85 | IC50 (LasR [5]): 2900 nM; IC50 (LuxR [4]): 350 nM |
| CCCCCCCCCC(=O)CC(=O)NCc1ccc(OC)cc1 [Compound 14] | – | – | – | – | – | Antagonist, percent inhibition compared to a positive control (LasR [5]): −67.7%; LasR agonism, in words (LasR [1]): strongly agonized; Agonist, percent of activation compared to the positive control (LasR [1]): 73.0%; LasR antagonism, in words (LasR [7]): slight antagonism; Antagonist, percent inhibition compared to a positive control (LasR [7]): 37.8%; Antagonist, percent inhibition compared to a positive control (LuxR [4]): 14.6% |
| O=C(CCc1c[nH]c2ccccc12)NC1CCSC1=O (racemic) [Compound 22] | 4 | 10 | 16 | −80 | 68 | – |
| CCCCCCCC(=O)N[C@H]1CCSC1=O [Compound 26E] | 85 | 0 | 64 | 99 | 80 | IC50 (LasR [5]): 140 nM; IC50 (TraR; A. tumefaciens WCF (pCF372)): 2800 nM; IC50 (LuxR [4]): 130 nM |
| CCCCCCC(=O)N[C@H]1CCSC1=O [Compound 27E] | 8 | 0 | 78 | 78 | 78 | IC50 (LasR [5]): 790 nM; IC50 (TraR; A. tumefaciens WCF (pCF372)): 10000 nM; IC50 (LuxR [4]): 310 nM |
| COc1ccc(CC(=O)NC2CCSC2=O)cc1 (racemic) [Compound 20] | 1 | 7 | 51 | −107 | 70 | – |
| CCCCCC(=O)N[C@H]1CCSC1=O [Compound 28E] | 1 | 20 | 59 | −78 | 93 | IC50 (LasR [5]): 1100 nM; IC50 (LuxR [4]): 840 nM |
| CCCCCCCCCCCC(=O)N[C@H]1CCSC1=O [Compound 25E] | 4 | 42 | −93 | 6 | 57 | LasR agonism, in words (LasR [1]): strong agonists; EC50 (LasR [1]): 1900 nM; EC50 (LasR [2]; P. aeruginosa PA01 MW1 (pUM15)): 21000 nM |
| COc1ccc(CC(=O)N[C@H]2CCSC2=O)cc1 [Compound 20E] | 0 | 4 | 48 | −24 | 59 | IC50 (LasR [5]): 7200 nM |
| CCOC(=O)CNC(=O)CCc1cccc(I)c1 [Compound 34] | – | – | – | – | – | Antagonism, in words (LuxR [4]): excellent antagonistic activity |
| O=C(Cc1ccc(Br)cc1)N[C@H]1CCSC1=O [Compound 18E] | 8 | 5 | 68 | 25 | 91 | IC50 (LasR [5]): 400 nM; IC50 (LuxR [4]): 770 nM |
| CCCCCCCCCC(=O)CC(=O)NCc1ccco1 [Compound 10] | – | – | – | – | – | Antagonist, percent inhibition compared to a positive control (LasR [7]): 25.5%; Agonist, percent of activation compared to the positive control (LuxR [6]): 3.3% |
| CCCC(=O)CC(=O)N[C@H]1CCSC1=O [Compound 30E] | 6 | 76 | −119 | 93 | 62 | EC50 (LasR [1]): 130 nM; EC50 (LasR [2]; P. aeruginosa PA01 MW1 (pUM15)): 13000 nM; IC50 (TraR; A. tumefaciens WCF (pCF372)): 3200 nM |
| O=C(Cc1ccccc1)N[C@H]1CCSC1=O [Compound 21E] | 3 | 17 | 61 | 13 | 30 | IC50 (LasR [5]): 2500 nM |
| O=C(Cc1cccc([N+](=O)[O-])c1)NC1CCSC1=O (racemic) [Compound 19] | 82 | 5 | −13 | 33 | 19 | – |
| O=C(Cc1cccc([N+](=O)[O-])c1)N[C@H]1CCSC1=O [Compound 19E] | 81 | 3 | −3 | 30 | 30 | EC50 (LasR [1]): 4100 nM; EC50 (LuxR [6]; dose response): 11000 nM |
| CCCCCCCCCC(=O)CC(=O)Nc1ccccc1 [Compound 2] | – | – | – | – | – | LasR antagonism, in words (LasR [5]): antagonism capabilities; Antagonist, percent inhibition compared to a positive control (LasR [5]): 53.7%; LasR antagonism, in words (LasR [7]): antagonism capabilities; Antagonist, percent inhibition compared to a positive control (LasR [7]): 28.7% |
| CCCC(=O)N[C@H]1CCSC1=O [Compound 29E] | 4 | 22 | 17 | −70 | 42 | – |
| O=C(Cc1ccc(Br)cc1)NC1CCSC1=O (racemic) [Compound 18] | 2 | 8 | 80 | −60 | 97 | – |
| O=C(Cc1ccccc1)NC1CCSC1=O (racemic) [Compound 21] | 2 | 2 | 65 | −22 | 34 | – |

— US9758472B2, “Non-lactone carbocyclic and heterocyclic antagonists and agonists of bacterial quorum sensing” (WISCONSIN ALUMNI RESEARCH FOUNDATION, priority 2009, dated 2017)
